Blank lines part the entries; values can stand above or below the molecule they belong to. Starred links: 1 amine or outer side, 2 acyl side, 3 side chain; linkers in the order of their positions; H or OH if unused. Positions of bridges follow the written chain, without caps; N, C: chain ends. Non-standard residues stand in square brackets, D forms with d. Residues, ends and D or L forms follow the SMILES beside them. Chains are numbered I, II in the order given. Hexamethylenediamine = C(CCCN[*:2])CCN[*:1]; Dip = N[C@H](C(=O)O)C(c1ccccc1)c1ccccc1; Chg = N[C@H](C(=O)O)C1CCCCC1; NMeA = CN[C@@H](C)C(=O)O
Experiments:
[1] = test system: MEFs; experiment: Mitochondrial aspect ratio (Mito AR), live cell imaging; details: for activity to promote mitochondrial fusion or fision: MASMs: fusion, MFIs: fission; for capacity to promote mitochondrial fragmentation in cells (activity of MFI8 analogue): compared with MFI8; for mitochondrial aspect ratio: MEFs, MitoTracker Green
Protocol: Live cell imaging. MEFs were seeded on chamber slides (MatTek Corporation: 35 mm dishes, No. 1.5, 14 mm glass diameter) at ˜70% confluence. […] Images were taken with Leica SP5 inverted confocal microscope. Data were analyzed with Image J software. >200 mitochondria were measured per condition in mitochondrial aspect ratio.
Measurement of mitochondrial aspect ratio (Mito AR). Images that depict stained mitochondria with mitotracker green were analyzed using FIJI We measured for each mitochondrion its length and width. Then, we divided the length by the width for each mitochondrion to get its mitochondrial aspect ratio. >200 mitochondria were measured per treatment.

[2] = test system: cells; experiment: Cell death assay (Annexin V / propidium iodide); type: cell-based
Protocol: Cell death assay. Cells (2×10^5 cells/well) were seeded in a 6-well plate and treated with the indicated drugs for 6 hours. Cells were dissociated using Accutase (Thermo Fisher; Cat. #00-4555-56) in order to avoid accidental exposure of phosphatidylserine on the outer plasma membrane. Cell death was evaluated with Dead Cell Apoptosis Kit with Annexin V Alexa Fluor™ 488 & Propidium Iodide (Thermo Fisher; Cat. #V13241) according to manufacturer's protocol. Data was acquired by BD LSRII flow cytometer system using BD FACSDiva software. Data was analyzed by FlowJo (BD).

[3] = test system: MEFs; experiment: Caspase-3/7 activation assay; type: cell-based, mouse; details: 6 hr, Caspase-Glo 3/7
Protocol: Caspase-3/7 activation assay. Cells (5×10^3 cells/well) were seeded in a 96-well white plate and treated with MASM7, MFI8. Caspase 3/7 activation was measured after 6 hr by addition of the Caspase-Glo 3/7 reagent according to the manufacturer's protocol (Promega). Luminescence was detected by a F200 PRO microplate reader (TECAN). Caspase assays were performed in at least triplicate and the data normalized to vehicle-treated control wells. Dilutions of MASM7 or MFI8 were performed using a TECAN D300e Digital Dispenser from 10 mM stocks.

[4] = biological target: T1, HR2 domain of MFN2 (residues 678-757) (Homo sapiens, UniProt O95140); experiment: Microscale thermophoresis (MST) binding; details: His-tagged MFN2-HR2, 30° C.
T1 sequence (O95140 678-757): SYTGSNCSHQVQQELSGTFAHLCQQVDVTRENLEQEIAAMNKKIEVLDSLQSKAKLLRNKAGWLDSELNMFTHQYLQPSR
Protocol: Microscale Thermopheresis. Freshly purified His-tagged MFN2-HR2 domain was used for Microscale Thermophoresis (MST) binding studies. For protein labelling, a fresh stock of 5 μM His-tag-RED-tris-NTA 2nd generation dye (Nanotemper) in 25 mM Hepes pH 7.5, 100 mM NaCl, 0.005% Tween-20 (assay buffer) was used to label 500 nM of MFN2-HR2 in the same buffer. The labeling reaction was incubated for 30 min at RT and centrifuged at 15.000×g at 4° C. for 10 min. Labelled protein from the supernatant was kept on ice and used immediately. Compounds were serially diluted in 100% DMSO. Immediately before mixing with labeled protein, the dilution series was transferred in assay buffer to reach 2% DMSO. 10 μl of each compound in the final series was mixed with 10 μl of labeled protein and samples were incubated for 5 min at 30° C. before MST measurement using a MonolithNT.115 instrument (Nanotemper). Peptides were diluted in assay buffer plus 2% DMSO and treated as above. […] Kd values were obtained from non-linear regression fits of normalized data to a three or four parameter logistic curve, using GraphPad Prism 9.

[5] = biological target: the molecule itself; experiment: blue native PAGE of digitonin lysates of isolated MEF mitochondria, anti-MFN2 blot

Molecule: Cc1cccc(NCc2cc(Cl)ccc2O)c1 [MFI24, 4-Chloro-2-((m-tolylamino)methyl)phenol]
mitochondrial aspect ratio [1]: did not reduce mitochondrial aspect ratio

Molecule: CN[C@@H](C)C(=O)N[C@H](C(=O)N1CCC[C@H]1C(=O)N[C@H](C(=O)NCCCCCCNC(=O)[C@@H](NC(=O)[C@@H]1CCCN1C(=O)[C@@H](NC(=O)[C@H](C)NC)C1CCCCC1)C(c1ccccc1)c1ccccc1)C(c1ccccc1)c1ccccc1)C1CCCCC1 [BV6, reference compound] (I: H-[NMeA][Chg]P[Dip] / II: H-[NMeA][Chg]P[Dip]; linker I:C-II:C via Hexamethylenediamine)
cell death upon BV6 treatment ([2]; deletion of MFNs): sensitized cells to BV6 treatment

B1: MFN2 (endogenous, in mitochondria isolated from MEFs) (other, mouse (MEFs), UniProt Q80U63 1-757, looked up)
chain: MSLLFSRCNSIVTVKKDKRHMAEVNASPLKHFVTAKKKINGIFEQLGAYIQESASFLEDTHRNTELDPVTTEEQVLDVKGYLSKVRGISEVLARRHMKVAFFGRTSNGKSTVINAMLWDKVLPSGIGHTTNCFLRVGGTDGHEAFLLTEGSEEKKSVKTVNQLAHALHQDEQLHAGSMVSVMWPNSKCPLLKDDLVLMDSPGIDVTTELDSWIDKFCLDADVFVLVANSESTLMQTEKQFFHKVSERLSRPNIFILNNRWDASASEPEYMEEVRRQHMERCTSFLVDELGVVDRAQAGDRIFFVSAKEVLSARVQKAQGMPEGGGALAEGFQVRMFEFQNFERQFEECISQSAVKTKFEQHTVRAKQIAEAVRLIMDSLHIAAQEQRVYCLEMREERQDRLRFIDKQLELLAQDYKLRIKQITEEVERQVSTAMAEEIRRLSVLVDEYQMDFHPSPVVLKVYKNELHRHIEEGLGRNLSDRCSTAIASSLQTMQQDMIDGLKPLLPVSMRNQIDMLVPRQCFSLSYDLNCDKLCADFQEDIEFHFSLGWTMLVNRFLGPKNSRRALLGYSDQVQRPLPLTPANPSMPPLPQSSLTQEELMVSMVTGLASLTSRTSMGILVVGGVVWKAVGWRLIALSFGLYGLLYVYERLTWTTKAKERAFKRQFVEYASEKLQLIISYTGSNCSHQVQQELSGTFAHLCQQVDITRDNLEQEIAAMNKKVEALDSLQSRAKLLRNKAGWLDSELNMFTHQYLQPSR
notes: whole, on cells; The protein stood in isolated mitochondria, not on whole cells; It was solubilised with digitonin and resolved by blue native PAGE; also called mitofusin-2
binding result [5]: binds

The next lines start with results.

caspase-3/7 activity [3]: did not increase caspase-3/7 activity | direct binding to the HR2 domain of MFN2 (MST) [4]: did not demonstrate measurable binding
Molecule: Cc1cccc(NC(C)c2ccccc2O)c1C (centres unmarked) [MFI22, 2-(1-((2,3-Dimethylphenyl)amino)ethyl)phenol]
activity to promote mitochondrial fusion or fision [1]: inability or weak activity | capacity to promote mitochondrial fragmentation in cells (activity of MFI8 analogue) [1]: significantly reduced the capacity of the compound to promote mitochondrial fragmentation | sensitization to BV6-induced cell death ([2]; in combination with BV6): did not sensitize cells to BV6 treatment

direct binding to the HR2 domain of MFN2 (MST) [4]: did not demonstrate measurable binding
Molecule: Cc1cccc(NC(C)c2cccc(Cl)c2)c1C (centres unmarked) [MFI26, N-(1-(3-chlorophenyl)ethyl)-2,3-dimethylaniline]
activity to promote mitochondrial fusion or fision [1]: inability or weak activity | capacity to promote mitochondrial fragmentation in cells (activity of MFI8 analogue) [1]: detrimental for the activity

direct binding to the HR2 domain of MFN2 (MST) [4]: demonstrated direct binding
Molecule: Cc1cccc(NCc2cc(Cl)ccc2O)c1C [MFI23, 4-Chloro-2-(((2,3-dimethylphenyl)amino)methyl)phenol]
mitochondrial aspect ratio [1]: decreasing | capacity to promote mitochondrial fragmentation in cells (activity of MFI8 analogue) [1]: minimal effect on the activity

— patent US20240366540A1, “MITOFUSIN INHIBITORS AND USES THEREOF” (Albert Einstein College of Medicine, priority 2021, published 2024)
